# From ChEMBL document CHEMBL1149816, “Class II-selective histone deacetylase inhibitors. Part 2: alignment-independent GRIND 3-D QSAR, homology and docking studies” (Eur J Med Chem, 2008)
# Tests used:
# [1] = system: Zea mays; experiment: Selectivity for IC50 of maize histone deacetylase 1A over IC50 of maize histone deacetylase 1B
# [2] = Inhibition of maize histone deacetylase 1A; design: species or system Zea mays
# [3] = molecular target: Histone deacetylase HD1B (Zea mays, UniProt Q9ZTP8); experiment: Inhibition of maize histone deacetylase 1B
# Chain of Histone deacetylase HD1B (Q9ZTP8 whole entry): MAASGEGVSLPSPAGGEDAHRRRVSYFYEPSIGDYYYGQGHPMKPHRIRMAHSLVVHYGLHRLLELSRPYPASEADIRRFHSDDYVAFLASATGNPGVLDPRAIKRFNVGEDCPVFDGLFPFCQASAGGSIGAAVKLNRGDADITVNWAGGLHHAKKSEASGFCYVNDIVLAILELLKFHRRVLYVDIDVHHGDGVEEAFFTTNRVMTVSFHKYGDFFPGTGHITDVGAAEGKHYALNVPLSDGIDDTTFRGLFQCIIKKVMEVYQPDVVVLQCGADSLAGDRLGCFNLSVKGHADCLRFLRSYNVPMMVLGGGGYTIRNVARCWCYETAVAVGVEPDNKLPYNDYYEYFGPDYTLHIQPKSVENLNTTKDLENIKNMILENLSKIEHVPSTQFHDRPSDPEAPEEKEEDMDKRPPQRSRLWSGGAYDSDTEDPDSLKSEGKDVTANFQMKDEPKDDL
SMILES,Ratio IC50 [1],IC50 [2] [µM],IC50 ([3]; read-out: IC50) [µM],pIC50 [2],IC50 ([3]; read-out: pIC50 (converted)) [µM]
Cn1cc(/C=C/C(=O)c2ccc(F)cc2)cc1/C=C/C(=O)NO,1.6,15.7,24.9,–,–
Cn1cc(/C=C/C(=O)c2ccc(Cl)cc2Cl)cc1/C=C/C(=O)NO,6.1,2.8,17,5.523,–
Cn1cc(/C=C/C(=O)c2ccc(F)c(F)c2)cc1/C=C/C(=O)NO,6.1,2.2,13.5,5.658,–
CC(/C=C/C(=O)NO)=C\[C@@H](C)C(=O)c1ccc(N(C)C)cc1 [TRICHOSTATIN],–,0.0008,–,–,–
Cn1cc(/C=C/C(=O)c2ccc(Cl)cc2)cc1/C=C/C(=O)NO,–,18.6,29.4,–,–
Cn1cc(/C=C/C(=O)c2cc3ccccc3o2)cc1/C=C/C(=O)NO,4,3,12,5.469,59
COc1ccc(C(=O)/C=C/c2cc(/C=C/C(=O)NO)n(C)c2)cc1,–,0.79,0.8,–,–
Cn1cc(/C=C/C(=O)c2ccccc2Cl)cc1/C=C/C(=O)NO,32,0.05,1.6,–,–
COc1cccc(C(=O)/C=C/c2cc(/C=C/C(=O)NO)n(C)c2)c1,1.5,0.39,0.6,–,–
Cn1cc(/C=C/C(=O)c2ccsc2)cc1/C=C/C(=O)NO,1.6,13.8,22.6,–,–
COc1ccccc1C(=O)/C=C/c1cc(/C=C/C(=O)NO)n(C)c1,–,0.16,0.17,–,–
CC/C(=C\c1cc(/C=C/C(=O)NO)n(C)c1)C(=O)c1ccccc1,20.4,0.22,4.5,–,–
Cn1cc(/C=C/C(=O)c2ccc(F)c(Cl)c2)cc1/C=C/C(=O)NO,2.8,0.5,1.4,6.733,0.621
Cn1cc(/C=C/C(=O)c2cccc3ccccc23)cc1/C=C/C(=O)NO,33,0.01,0.33,–,–
Cn1cc(/C=C/C(=O)c2cccc(F)c2)cc1/C=C/C(=O)NO,176,0.22,38.8,–,–
Cn1cc(/C=C/C(=O)c2ccccc2F)cc1/C=C/C(=O)NO,34,0.1,3.4,–,–
Cn1cc(/C=C/C(=O)c2cc(F)cc(F)c2)cc1/C=C/C(=O)NO,11.2,–,23.5,5.678,–
Cn1cc(/C=C/C(=O)c2cccc(C(F)(F)F)c2)cc1/C=C/C(=O)NO,17.1,9.3,159,5.032,–
Cn1cc(/C=C/C(=O)c2ccccc2Br)cc1/C=C/C(=O)NO,–,0.21,0.18,–,–
Cn1cc(/C=C/C(=O)c2ccc(Cl)c(Cl)c2)cc1/C=C/C(=O)NO,3.6,5.9,21.3,5.229,–
Cc1ccc(C(=O)/C=C/c2cc(/C=C/C(=O)NO)n(C)c2)cc1,9.6,0.5,4.8,–,–
C/C(=C\c1cc(/C=C/C(=O)NO)n(C)c1)C(=O)c1ccccc1,–,0.78,0.57,–,–

# More lines, in order of falling IC50 [2], values ahead:
Ratio IC50 [1],IC50 [2] [µM],IC50 ([3]; read-out: IC50) [µM],pIC50 [2],IC50 ([3]; read-out: pIC50 (converted)) [µM],SMILES
3.3,90,298,4.046,–,Cn1cc(/C=C/C(=O)c2cccc(OC(F)(F)F)c2)cc1/C=C/C(=O)NO
1.2,20.3,24.3,–,–,Cn1cc(/C=C/C(=O)c2ccc(Br)cc2)cc1/C=C/C(=O)NO
1.6,16.3,25.8,–,–,Cn1cc(/C=C/C(=O)c2cccs2)cc1/C=C/C(=O)NO
2.5,6.8,17.2,6.243,–,Cn1cc(/C=C/C(=O)c2cccc(Cl)c2Cl)cc1/C=C/C(=O)NO
17.3,3.4,59,6.777,0.807,Cn1cc(/C=C2\CCc3ccccc3C2=O)cc1/C=C/C(=O)NO
14.4,2.2,31.8,–,–,Cn1cc(/C=C/C(=O)c2ccc(-c3ccccc3)cc2)cc1/C=C/C(=O)NO
3,2.1,6.4,–,–,Cn1cc(/C=C/C(=O)c2ccc3c(c2)CCO3)cc1/C=C/C(=O)NO
–,1.6,0.48,–,–,Cn1cc(/C=C/C(=O)c2cccc(Br)c2)cc1/C=C/C(=O)NO
16.4,1.2,19.7,–,–,Cn1cc(/C=C/C(=O)c2ccco2)cc1/C=C/C(=O)NO
20.8,0.8,16.6,6.097,0.8,Cn1cc(/C=C/C(=O)c2cc(F)ccc2F)cc1/C=C/C(=O)NO
71.4,0.44,31.4,–,–,Cn1cc(/C=C/C(=O)c2cccc(Cl)c2)cc1/C=C/C(=O)NO
2.6,0.196,0.51,6.301,1.4,Cn1cc(/C=C2\CCCc3ccccc3C2=O)cc1/C=C/C(=O)NO
–,0.19,0.26,–,–,Cn1cc(/C=C/C(=O)c2ccccc2)cc1/C=C/C(=O)NO
3.4,0.185,0.621,6.708,–,Cn1cc(/C=C/C(=O)c2ccc3c(c2)OCCO3)cc1/C=C/C(=O)NO
14.7,0.17,2.5,–,–,Cc1cccc(C(=O)/C=C/c2cc(/C=C/C(=O)NO)n(C)c2)c1
4.8,0.167,0.807,5.553,17,Cn1cc(/C=C/C(=O)c2c(F)cccc2F)cc1/C=C/C(=O)NO
6.5,0.06,0.39,–,–,Cc1ccccc1C(=O)/C=C/c1cc(/C=C/C(=O)NO)n(C)c1
45,0.04,1.8,–,–,Cn1cc(/C=C/C(=O)c2ccc3ccccc3c2)cc1/C=C/C(=O)NO
